Experimental data taken from publication PMC12655757, “Design and Synthesis of Novel Candidate CK1δ Proteolysis Targeting Chimeras (PROTACs)” (Molecules, 2025).

Experiments:
CK1δ [1] = target: T1, CK1δ (Homo sapiens, UniProt P48730); test: in vitro radiometric kinase assay ([…]-ATP, CK1 peptide substrate); type: biochemical
T1 construct: gene CSNK1D

CK1δ [2] = target: T1, CK1δ; test: in vitro radiometric kinase assay ([…]-ATP, CK1 peptide substrate); CRBN-dependent CK1δ degradation in cells; type: biochemical

T1 sequence (P48730 whole entry): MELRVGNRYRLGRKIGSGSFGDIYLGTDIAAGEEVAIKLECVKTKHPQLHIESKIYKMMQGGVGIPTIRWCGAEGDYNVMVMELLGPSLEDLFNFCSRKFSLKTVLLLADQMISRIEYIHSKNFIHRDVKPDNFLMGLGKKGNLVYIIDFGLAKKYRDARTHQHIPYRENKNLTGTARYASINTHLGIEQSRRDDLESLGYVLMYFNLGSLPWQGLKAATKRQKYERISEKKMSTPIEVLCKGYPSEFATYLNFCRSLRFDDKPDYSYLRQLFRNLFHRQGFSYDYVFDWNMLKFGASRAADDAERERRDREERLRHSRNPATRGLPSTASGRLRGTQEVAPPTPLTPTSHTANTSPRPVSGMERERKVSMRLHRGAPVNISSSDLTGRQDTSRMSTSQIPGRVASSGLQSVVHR

| IC50 (CK1δ [1]) | IC50 (CK1δ [2]) | Structure (SMILES) |
| --- | --- | --- |
| 1960 nM |  | O=C1CCC(N2C(=O)c3cccc(OCCCOCCC(=O)Nc4ccc(Cn5c(SCC(=O)Nc6nc7ccc(C(F)(F)F)cc7s6)nccc5=O)cc4)c3C2=O)C(=O)N1 (stereo not shown) [P3d] |
|  | 2160 nM | O=C1CCC(N2C(=O)c3cccc(NCCCCCC(=O)Nc4ccc(Cn5c(SCC(=O)Nc6nc7ccc(C(F)(F)F)cc7s6)nccc5=O)cc4)c3C2=O)C(=O)N1 (stereo not shown) [P1d] |
| 3430 nM |  | Nc1ccc(Cn2c(SCC(=O)Nc3nc4ccc(C(F)(F)F)cc4s3)nccc2=O)cc1 [I9] |
| ~2200 nM |  | O=C1CCC(N2C(=O)c3ccc(OCCCOCCC(=O)Nc4ccc(Cn5c(SCC(=O)Nc6nc7ccc(C(F)(F)F)cc7s6)nccc5=O)cc4)cc3C2=O)C(=O)N1 (stereo not shown) [P4d] |
